Laboratory results published in US20250275539A1, “APYRASE INHIBITORS” (Texas Crop Science, Inc., priority 2024, published 2025).

System: apyrase
Assay: Apyrase inhibition assay (screen for apyrase inhibitors, phosphate release read at 630 nm)
Assay type: biochemical
Settings: inhibitor conc at 1 mM (10 μl added), 3 mM ATP, pH 6.5, room temperature 1 hr
Protocol: Apyrase inhibitors useful as enhancers of pesticidal activity are assessed using an in vitro assay. The method of Windsor, Bio Techniques 33:1024-1030 (November 2002) was used as follows
• 96 well plates were used for the assay: (Greiner bio-one: REF-655901-96 well, PS, F-bottom, Clear, Non-binding)
• Reaction Buffer: 60 mM Hepes; 3 mM MgCl2, 3 mM CaCl2) and 3 mM ATP (pH 6.5) • Development Buffer A: 2% aqueous ammonium molybdate • Development Buffer B: 11% ascorbic acid in 37.5% TCA in water • Stop buffer C: 2% trisodium citrate in 2% acetic acid solution in water
• Add 100 μl of reaction buffer to each well. • Add 10 μl of DMSO (control) or inhibitor/compound or compounds such as N1915 or orthovanadate to each well. (use inhibitor conc at 1 mM; orthovanadate at 2 mM and N1915 at 1 mM) • Add 10 μl of apyrase (concentration based on optimization—Dilute 1 U/μl enzyme to different concentrations such as 0.1 U, 0.05 U, 0.0025, 0.001 U, 0.0005 U—to find a good range) • Incubate plate at room temperature for 1 hr • Mix development buffer A and B in the ratio of 1:1.5 (just before use). • Add 50 μl of A: B mix in each well (incubate for 2 mins) • Add 50 μl of C in each well • Measure/Read Absorbance of plate @630 nm
Inhibitory data for the apyrase assay described above are provided for selected compounds in Table 3. D is inhibition of 0% to 10%, C is inhibition from 10% to 20%, B is inhibition from 20% to 30%, and A is inhibition above 30%. Blank entries signify compounds that were not tested.

## CCCc1ccc(S(=O)(=O)Nc2ccc(Cl)c(C(=O)O)c2)cc1 [Compound A-102, 2-chloro-5-((4-propylphenyl)sulfonamido) benzoic acid]
  Inhibition: D (D is inhibition of 0% to 10%)

## Cc1cccc(NS(=O)(=O)c2ccccc2)c1 [Compound A-57, N-(m- tolyl)benzenesulfonamide]
  Inhibition: D (D is inhibition of 0% to 10%)

## CCCc1ccc(S(=O)(=O)Nc2ccc(S(=O)(=O)NC)cc2)cc1 [Compound A-80, N-methyl-4-((4-propylphenyl)sulfonamido) benzenesulfonamide]
  Inhibition: D (D is inhibition of 0% to 10%)

## CCCc1ccc(S(=O)(=O)Nc2ccc(Cl)c(NC(C)=O)c2)cc1 [Compound A-119, N-(2-chloro-5-((4-propylphenyl)sulfonamido)phenyl)acetamide]
  Inhibition: D (D is inhibition of 0% to 10%)

## CCCc1ccc(S(=O)(=O)Nc2ccccc2CC(=O)NC)cc1 [Compound A-41, N-methyl-2-(2-((4-propylphenyl)sulfonamido)phenyl)acetamide]
  Inhibition: A (A is inhibition above 30%)

## CCCc1ccc(S(=O)(=O)Nc2ccc(O)c(C(=O)O)c2)cc1 [Compound A-26, 2-hydroxy-5-((4-propylphenyl)sulfonamido) benzoic acid]
  Inhibition: B (B is inhibition from 20% to 30%)

## O=S(=O)(c1ccc(-c2ccccc2)cc1)N1CCc2ccccc21 [Compound A-114]
  Inhibition: D (D is inhibition of 0% to 10%)

## Cc1cccc(NS(=O)(=O)c2ccc(C(=O)NCC(F)(F)F)cc2)c1 [Compound A-66, 4-(N-(m-tolyl)sulfamoyl)-N-(2,2,2-trifluoroethyl)benzamide]
  Inhibition: C (C is inhibition from 10% to 20%)

## CCCc1ccc(S(=O)(=O)Nc2cc(OC)c(Cl)cc2OC)cc1 [Compound A-68, N-(4-chloro-2,5-dimethoxyphenyl)-4-propylbenzenesulfonamide]
  Inhibition: D (D is inhibition of 0% to 10%)

## CCCc1ccc(S(=O)(=O)Nc2ccc(O)c(NC(C)=O)c2)cc1 [Compound A-38, N-(2-hydroxy-5-((4-propylphenyl)sulfonamido)phenyl)acetamide]
  Inhibition: C (C is inhibition from 10% to 20%)

## CCCc1ccc(S(=O)(=O)Nc2cccc(NC(C)=O)c2)cc1 [Compound A-77, N-(3-((4-propylphenyl)sulfonamido)phenyl)acetamide]
  Inhibition: D (D is inhibition of 0% to 10%)

## CCCc1ccc(S(=O)(=O)Nc2ccc(F)cc2C(=O)O)cc1 [Compound A-43, 5-fluoro-2-((4-propylphenyl)sulfonamido) benzoic acid]
  Inhibition: C (C is inhibition from 10% to 20%)

## Cc1cccc(NS(=O)(=O)c2ccc(C(N)=O)cc2)c1 [Compound A-18, 4-(N-(m-tolyl)sulfamoyl)benzamide]
  Inhibition: C (C is inhibition from 10% to 20%)

## CCCc1ccc(S(=O)(=O)Nc2ccc(S(=O)(=O)Nc3nccs3)cc2)cc1 [Compound A-85, 4-propyl-N-(4-(N-(thiazol-2-yl)sulfamoyl)phenyl)benzene-sulfonamide]
  Inhibition: D (D is inhibition of 0% to 10%)

## CCCc1ccc(S(=O)(=O)Nc2ccccc2-c2nncn2C)cc1 [Compound A-107, N-(2-(4-methyl-4H-1,2,4-triazol-3-yl)phenyl)-4-propylbenzenesulfonamide]
  Inhibition: C (C is inhibition from 10% to 20%)

## O=S(=O)(Nc1cc(-c2cccnc2)n[nH]1)c1ccc(-c2ccccc2)cc1 [Compound A-14, N-(3-(pyridin-3-yl)-1H-pyrazol-5-yl)-[1,1′-biphenyl]-4-sulfonamide]
  Inhibition: D (D is inhibition of 0% to 10%)

## CCCc1ccc(S(=O)(=O)Nc2ccc(C)c(S(N)(=O)=O)c2)cc1 [Compound A-104, N-(4-methyl-3-sulfamoylphenyl)-4-propylbenzenesulfonamide]
  Inhibition: D (D is inhibition of 0% to 10%)

## COc1ccc(OC)c(NS(=O)(=O)c2ccc(-c3ccccc3)cc2)c1 [Compound A-4, N-(2,5-dimethoxyphenyl)-[1,1′-biphenyl]-4-sulfonamide]
  Inhibition: B (B is inhibition from 20% to 30%)

## CCCc1ccc(S(=O)(=O)Nc2ccc(S(=O)(=O)CC)cc2)cc1 [Compound A-32, N-(4-(ethylsulfonyl)phenyl)-4-propylbenzenesulfonamide]
  Inhibition: C (C is inhibition from 10% to 20%)

## CCCc1ccc(S(=O)(=O)Nc2ccc(C)c(S(=O)(=O)N(C)C)c2)cc1 [Compound A-89, N,N,2-trimethyl-5-((4-propylphenyl)sulfonamido) benzenesulfonamide]
  Inhibition: D (D is inhibition of 0% to 10%)

## CCCc1ccc(S(=O)(=O)Nc2ccccc2Cl)cc1 [Compound A-71, N-(2-chlorophenyl)-4-propylbenzenesulfonamide]
  Inhibition: D (D is inhibition of 0% to 10%)

## CCCc1ccc(S(=O)(=O)Nc2cccc(S(N)(=O)=O)c2)cc1 [Compound A-72, 4-propyl-N-(3-sulfamoylphenyl)benzene-sulfonamide]
  Inhibition: C (C is inhibition from 10% to 20%)

## CCCc1ccc(S(=O)(=O)Nc2ccc(C(=O)N(CC)CC)cc2)cc1 [Compound A-78, N,N-diethyl-4-((4-propylphenyl)sulfonamido) benzamide]
  Inhibition: D (D is inhibition of 0% to 10%)

## CCCc1ccc(S(=O)(=O)Nc2cc(C)ccc2OC)cc1 [Compound A-88, N-(2-methoxy-5-methylphenyl)-4-propylbenzenesulfonamide]
  Inhibition: D (D is inhibition of 0% to 10%)

## CCCc1ccc(S(=O)(=O)Nc2ccc3[nH]ncc3c2)cc1 [Compound A-69, N-(1H-indazol-5-yl)-4-propylbenzenesulfonamide]
  Inhibition: D (D is inhibition of 0% to 10%)

## CCCc1ccc(S(=O)(=O)Nc2ccc(C(N)=O)cc2)cc1 [Compound A-81, 4-((4-propylphenyl)sulfonamido) benzamide]
  Inhibition: D (D is inhibition of 0% to 10%)

## CCCc1ccc(S(=O)(=O)Nc2ccccc2Sc2nncn2C)cc1 [Compound A-27, N-(2-((4-methyl-4H-1,2,4-triazol-3-yl)thio)phenyl)-4-propylbenzenesulfonamide]
  Inhibition: D (D is inhibition of 0% to 10%)

## CCCc1ccc(S(=O)(=O)Nc2cc(Cl)ccc2-n2cncn2)cc1 [Compound A-122, N-(5-chloro-2-(1H-1,2,4-triazol-1-yl)phenyl)-4-propylbenzenesulfonamide]
  Inhibition: C (C is inhibition from 10% to 20%)

## CCCc1ccc(S(=O)(=O)Nc2ccccc2-n2cc(C(=O)OC)nn2)cc1 [Compound A-39, methyl 1-(2-((4-propylphenyl)sulfonamido)phenyl)-1H-1,2,3-triazole-4-carboxylate]
  Inhibition: D (D is inhibition of 0% to 10%)

## CCCC(=O)Nc1cccc(NS(=O)(=O)c2ccc(CCC)cc2)c1C [Compound A-118, N-(2-methyl-3-((4-propylphenyl)sulfonamido)phenyl)butyramide]
  Inhibition: D (D is inhibition of 0% to 10%)

## CCCc1ccc(S(=O)(=O)Nc2cccc(N3CCCC3=O)c2)cc1 [Compound A-7, N-(3-(2-oxopyrrolidin-1-yl)phenyl)-4-propylbenzenesulfonamide]
  Inhibition: C (C is inhibition from 10% to 20%)

## CCCc1ccc(S(=O)(=O)Nc2cccc([N+](=O)[O-])c2)cc1 [Compound A-70, N-(3-nitrophenyl)-4-propylbenzenesulfonamide]
  Inhibition: C (C is inhibition from 10% to 20%)

## CCCc1ccc(S(=O)(=O)Nc2ccc(S(=O)(=O)N=C3CCCCCN3)cc2)cc1 [Compound A-52, N-(azepan-2-ylidene)-4-((4-propylphenyl)sulfonamido) benzenesulfonamide]
  Inhibition: C (C is inhibition from 10% to 20%)

## Cc1cccc(NS(=O)(=O)c2ccc(OCC(=O)O)cc2)c1 [Compound A-101, 2-(4-(N-(m-tolyl)sulfamoyl)phenoxy) acedtic acid]
  Inhibition: B (B is inhibition from 20% to 30%)

## Cc1cccc(NS(=O)(=O)c2ccc(NC(=O)Nc3ccc([N+](=O)[O-])cc3)cc2)c1 [Compound A-98, 4-(3-(4-nitrophenyl)ureido)-N-(m-tolyl)benzenesulfonamide]
  Inhibition: A (A is inhibition above 30%)

## NC1CCN(S(=O)(=O)c2ccc(-c3ccccc3)cc2)CC1 [Compound A-33, 1-([1,1′-biphenyl]-4-ylsulfonyl)piperidin-4-amine]
  Inhibition: B (B is inhibition from 20% to 30%)

## O=S(=O)(Nc1ncccn1)c1ccc(-c2ccccc2)cc1 [Compound A-20, N-(pyrimidin-2-yl)-[1,1′-biphenyl]-4-sulfonamide]
  Inhibition: D (D is inhibition of 0% to 10%)

## CCCc1ccc(S(=O)(=O)Nc2cccc(CN3CCOC3=O)c2)cc1 [Compound A-110, N-(3-((2-oxooxazolidin-3-yl)methyl)phenyl)-4-propylbenzenesulfonamide]
  Inhibition: C (C is inhibition from 10% to 20%)

## CCCc1ccc(S(=O)(=O)Nc2cc(S(=O)(=O)N3CCCCC3)ccc2C)cc1 [Compound A-90, N-(2-methyl-5-(piperidin-1-ylsulfonyl)phenyl)-4-propylbenzenesulfonamide]
  Inhibition: A (A is inhibition above 30%)
